From patent US20100184695A1, “VASCULAR ENDOTHELIAL CELL-BINDING PEPTIDE” (priority 2007, published 2010) come the findings set out here.

No end group written: not given here.

The test system of assay [1] is HUVEC cells. In words: Uptake of fluorescently labeled peptide-multiarm PEG conjugate into endothelial cell (image analysis scoring). Type of assay: cell-based, human. Also noted: key: Score 0: No fluorescent luminescent spot in a cell is recognized.; Score 1: Faint fluorescent luminescent spots are recognized in a cell.; Score 2: Fluorescent luminescent spots clearer than in score 1 are recognized in a cell.; Score 3: Many luminescent spots further brighter than in score 2 are seen in a cell. Particulars: fluorescein-labeled multiarm PEG-peptide conjugate, peptide 16 μM, 8 hours. As to the method: (§1) PEG having four maleimide groups per molecule (Multiarm PEG, SUNBRIGHT PTE-200MA, manufactured by NOF Corporation) was dissolved in DMSO at the concentration of 2 mM, 20 μl of this solution, and an equivalent amount (20 μl) of a 10 mM fluorescein-labeled peptide solution in DMSO were mixed to react them at room temperature for 2 hours. After 60 μl of PBS was added to dilute the mixture to the total amount of 100 μl, desalting treatment was performed using a spin column (Bio-Rad, Micro Bio-Spin Column 30) equilibrated by washing with 500 μl of PBS three times in advance, and an unbound peptide was separated and removed to obtain a peptide-multiarm PEG conjugate.
A 96-well microplate (glass bottom plate, Nunc No. 164588) was treated with 100 μl of a 1% acidic collagen solution for 10 minutes in advance, and washed with 120 μl of PBS once, and 100 μl of 1×10^5/ml of HUVEC cells were seeded, and cultured under the condition of 37° C. and 5% CO2 for 2 days. Upon use, cells were washed with 150 μl of a medium (EBM-2 medium containing a 2% fetal bovine serum (Cambrex Bio Science, containing a growth factor)) once, and 50 μl of the same medium, and 50 μl of a solution obtained by diluting the multiarm PEG-peptide conjugate (a peptide of SEQ ID No. 12 and a partial peptide thereof (SEQ ID Nos. 17, 18, and 19), a peptide of SEQ ID No. 13 and a partial peptide thereof (SEQ ID Nos. 15, 20, and 21), and a random sequence peptide (SEQ ID No. 77)) prepared in Example 3 (1) with a medium to the peptide concentration of 32 μM were sequentially added, followed by culturing under the condition of 37° C. and 5% CO2 for 8 hours (the peptide concentration at reaction with cells was 16 μM). The cell after the reaction was observed using a confocal laser microscope (Olympus FV1000). The amount of fluorescent luminescent spots derived from the peptide recognized in a cell was scored as follows.
Score 0: No fluorescent luminescent spot in a cell is recognized. Score 1: Faint fluorescent luminescent spots are recognized in a cell. Score 2: Fluorescent luminescent spots clearer than in score 1 are recognized in a cell. Score 3: Many luminescent spots further brighter than in score 2 are seen in a cell.

In assay [2] the test system is HUVEC cells. The assay can be described thus: Uptake of fluorescently labeled peptide-BSA conjugate into endothelial cell (quantitative analysis). Type of assay: cell-based, human. The following applies: fluorescein-labeled peptide-BSA conjugate, peptide 10 μM, 8 hours, 37° C.; fluorescence recovered from cells. As to the method:
(§2) In 1 ml of a 50 mM sodium bicarbonate solution was dissolved 20 mg of BSA, to prepare a 0.3 mM solution. To the total amount (1 ml) of this solution was added 20 μl of a 250 mM solution (final concentration: 5 mM) of NHS-PEO12-maleimide (catalog No. 22112, manufactured by Pierce) which is a divalent crosslinking reagent having a PEG chain spacer, followed by a reaction at room temperature for 1 hour. After the reaction, 100 μl of the solution was desalted using a spin column (Bio-Rad, Micro Bio-Spin Column 30) equilibrated by washing with 500 μl of a 0.1 M sodium phosphate buffer (pH 7.0) three times in advance. An unreacted crosslinking reagent was separated and removed. After desalting, 50 μl of the solution was mixed with an equivalent amount of a 0.1 M sodium phosphate buffer (pH 7.0) to dilute, and to 100 μl of the resulting solution was added 10 μl of a fluorescein-labeled peptide solution in DMSO, followed by a reaction at room temperature for 1 hour. The total amount of the solution after the reaction was desalted using a spin column (Bio-Rad, Micro Bio-Spin Column 30) equilibrated by washing with 500 μl of PBS three times in advance, thereby, an unbound peptide was separated and removed, to obtain a peptide-BSA conjugate solution.
On a 96-well microplate (Corning No. 3595) were seeded 100 μl of 1×10^5/ml HUVEC cells, and cells were cultured under the condition of 37° C. and 5% CO2 for 2 days. Upon use, cells were washed with 150 μl of a medium (EBM-2 medium containing a 2% fetal bovine serum (Cambrex Bio Science, containing a growth factor)) once, and 50 μl of the same medium, and 50 μl of a solution obtained by diluting the peptide-BSA conjugate (SEQ ID Nos. 12, 13, 16, and 77) prepared in Example 3 (2) with a medium to the peptide concentration of 20 μM were sequentially added, followed by culturing under the condition of 37° C. and 5% CO2 for 8 hours (the peptide concentration at reaction with cells was 10 μM). Recovery of the peptide-BSA conjugate bound to, or taken into cells after the reaction, and fluorescence quantitation were performed in the same method as in Example 3.

In assay [3] the test system is HUVEC cells. In words: Uptake of fluorescently labeled peptide-BSA conjugate (image analysis). The following applies: peptide 10 μM, 8 hours. Type of assay: cell-based, human. As to the method:
as §2
A 96-well microplate (glass bottom plate, Nunc No. 164588) was treated with 100 μl of a 1% acidic collagen solution for 10 minutes in advance, and washed with 120 μl of PBS once, and 100 μl of 1×10^5/ml of HUVEC cells were seeded, and cultured under the condition of 37° C. and 5% CO2 for 2 days. Upon use, cells were washed with 150 μl of a medium (EBM-2 medium containing a 2% fetal bovine serum (Cambrex Bio Science, containing a growth factor)) once, and 50 μl of the same medium, and 50 μl of a solution obtained by diluting the peptide-BSA conjugate (SEQ ID Nos. 12, 13, 16, and 77) prepared in Example 3 (2) with a medium to the peptide concentration of 20 μM were sequentially added, followed by culturing under the condition of 37° C. and 5% CO2 for 8 hours (the peptide concentration at reaction with cells was 10 μM). Cells after the reaction were observed using a confocal laser microscope (Olympus FV1000).

Assay [4] relates to HUVEC cells. The assay can be described thus: Uptake of fluorescently labeled peptide-PEG conjugate into endothelial cell (quantitative analysis). Type of assay: cell-based, human. The following applies: fluorescein-labeled peptide-multiarm PEG conjugate, peptide 10 μM, 8 hours, 37° C.; fluorescence recovered from cells, added conjugate = 100%. As to the method:
as §1
A 96-well microplate (glass bottom plate, Nunc No. 164588) was treated with 100 μl of a 1% acidic collagen solution for 10 minutes in advance, and washed with 120 μl of PBS once, and 1×10^5/ml of 100 μl of HUVEC cells were seeded, and cultured under the condition of 37° C. and 5% CO2 for 2 days. Upon use, cells were washed with 150 μl of a medium (EBM-2 medium containing a 2% fetal bovine serum (Cambrex Bio Science, containing a growth factor)) once, and 50 μl of the same medium, and 50 μl of a solution obtained by diluting a peptide-multiarm PEG conjugate (SEQ ID Nos. 12, 13, 16 (partial sequence of SEQ ID No. 14), and 77) prepared in Example 3 (1) with a medium to the peptide concentration of 20 μM were sequentially added, followed by culturing under the condition of 37° C. and 5% CO2 for 8 hours (the peptide concentration at reaction with cells was 10 μM). Cells after culturing were washed with 150 μl of a HBSS(+) buffer three times to remove an unbound peptide-multiarm PEG conjugate, and 100 μl of HBSS(+) containing 1% SDS to extract a peptide bound to, or taken into cells. The extract was transferred to another 96-well microplate (black plate), and fluorescence at an excitation wavelength of 490 nm and a detection wavelength of 530 nm was measured using a fluorophotometer. Letting the fluorescent intensity of each of the added peptide-multiarm PEG conjugate to be 100%, the amount (%) of uptake of the peptide into cells was calculated from the fluorescent amount recovered from cells.

In assay [5] the test system is HeLa. In words: Uptake of fluorescently labeled peptide-BSA conjugate (image analysis). Type of assay: cell-based. The following applies: HeLa comparative cell; compared with uptake into a HUVEC.
Assay [6] deals with normal human umbilical vein endothelial cell. In words: Uptake of peptide-modified liposome encapsulating doxorubicin into HUVEC (quantification analysis). Format: cell-based. The following applies: doxorubicin-encapsulated peptide-modified liposome, 6 hours. As for the experimental part: Hydrogenated soybean phosphatidyl choline (10 mg), cholesterol (3.4 mg),
distearoylphosphatidylethanolamine-polyethylene glycol 5000 (3.5 mg), and distearoylphosphatidylethanolamine-polyethylene glycol 5000-maleimide (3.1 mg) were dissolved in chloroform, and a solvent in a flask was removed using an evaporator to form a thin film. To this was added 1.7 mL of a 250 mM aqueous ammonium sulfate solution, followed by heating at 65° C. The resulting vesicle was adjusted in a particle size with an extruder using, subsequently, porous membranes of the pore sizes of 1.0 μm, 0.4 μm, and 0.2 μm. Into the prepared liposome having the particle diameter of about 200 nm was encapsulated doxorubicin by a remote loading method. After unencapsulated doxorubicin was removed with a column, peptides (SEQ ID Nos. 12, 13, 76 (partial sequence of SEQ ID No. 7), and 78) were added, respectively, at the ⅕ amount based on maleimide, and a liposome into which various peptides are introduced was prepared. Unreacted maleimide was inactivated by adding the 3-fold amount of 2-mercaptoethanol.
Regarding a 50 to 60% confluent normal human umbilical vein endothelial cell cultured in a 24-well plate, a medium was exchanged, and a doxorubicin-encapsulated peptide-modified liposome solution was added in the half amount of a medium. After 6 hours, cells were washed with a phosphate buffer, treated with trypsin, and cells were collected by a centrifugation procedure. To a cell pellet was added 50 μL of 10% Triton X-100 to dissolve cells and the doxorubicin-encapsulated peptide-modified liposome, 350 μL of isopropanol with 10% 0.75 M HCl added thereto was added, and this was allowed to stand overnight at −20° C. After a centrifugation procedure, the supernatant was analyzed with an ODS column, and doxorubicin taken in the cell was quantitated.

Regarding PLALLTVH [Sequence-19], in assay [1], the “Intracellular Fluorescence (Score)” value came to 1.

For the substance “EYDLSTAGGAAA [Sequence-77, reference compound]”, the “Intracellular Fluorescence (Score)” value in assay [1] is on record as 0. Further, the “Recovery of Peptide-BSA conjugate (%)” value in assay [2] was 0.029%. In assay [3], the “Uptake of peptide-BSA conjugate into cell (confocal laser microscopic image)” value (“Uptake … (confocal laser microscopic image)” below) is reported as “no peptide in, a cell was observed”. Moreover, the “Recovery of Peptide-PEG conjugate (%)” value in assay [4] turned out to be 0.020%.

GTQLFLIH [Sequence-16]: the “Recovery of Peptide-BSA conjugate (%)” value in assay [2] came out at 0.227%. Further, the entries for the “Uptake … (confocal laser microscopic image)” value in assay [5] and in assay [3] were “an extremely small amount of peptides were observed in a cell” and “many bright luminescent spots were observed in a cell”, respectively. For the same substance, in assay [4], the “Recovery of Peptide-PEG conjugate (%)” value is listed as 0.047%.

SLTVPFLP [Sequence-20]: in assay [1], the “Intracellular Fluorescence (Score)” value worked out at 1.

With “SLTVPFLPLYVP [Sequence-13, peptide presented by phage PhD clone3-30]”, the “Intracellular Fluorescence (Score)” value in assay [1] is recorded as 2. In addition, the “Recovery of Peptide-BSA conjugate (%)” value in assay [2] turned out to be 0.116%. The “Uptake … (confocal laser microscopic image)” value in assay [5] is “an extremely small amount of peptides were observed in a cell”. In assay [6], the “Amount of uptake of doxorubicin compared with introduction of SEQ ID Nos. 12 and 76” value is “higher”; the “Amount of uptake of doxorubicin compared with random sequence (SEQ ID No. 78) liposome and liposome with no peptide” value was “remarkably increased”; the “Amount of uptake of doxorubicin relative to no peptide introduction” value is reported as “about 3 fold”. In addition, the “Uptake … (confocal laser microscopic image)” value in assay [3] was “many bright luminescent spots were observed in a cell”. Also, the “Recovery of Peptide-PEG conjugate (%)” value in assay [4] stood at 0.122%.

With “TLPSPLALLTVH [Sequence-12, peptide presented by phage PhD clone1-14]”, the “Intracellular Fluorescence (Score)” value in assay [1] was found to be 3. Also, the “Recovery of Peptide-BSA conjugate (%)” value in assay [2] was 0.127%. Also, the “Uptake … (confocal laser microscopic image)” value is reported as “an extremely small amount of peptides were observed in a cell” in assay [5] and “many bright luminescent spots were observed in a cell” in assay [3]. Moreover, the “Amount of uptake of doxorubicin compared with random sequence (SEQ ID No. 78) liposome and liposome with no peptide” value in assay [6] is on record as “remarkably increased”. In addition, the “Recovery of Peptide-PEG conjugate (%)” value in assay [4] amounted to 0.211%.

PFLPLYVP [Sequence-15]: the “Intracellular Fluorescence (Score)” value in assay [1] is given as 2.

Consider TVPFLPLY [Sequence-21], for which, in assay [1], the “Intracellular Fluorescence (Score)” value came out at 1.

Regarding PSPLALLT [Sequence-18], in assay [1], the “Intracellular Fluorescence (Score)” value is on record as 1.

“SEQ ID No. 76: partial sequence of SEQ ID No. 7; sequence not printed in the text (VIPILSIYTA; Designed peptide acting as a vascular endothelial cell binding peptide)”: the “Amount of uptake of doxorubicin compared with random sequence (SEQ ID No. 78) liposome and liposome with no peptide” value in assay [6] is “remarkably increased”.

For the substance TLPSPLAL [Sequence-17], in assay [1], the “Intracellular Fluorescence (Score)” value was 1.
